Assay results taken from patent US5159085A, “2-anilino phenylacetic acid derivatives as inhibitors of PLA2 and lipoxygenase” (American Home Products Corporation, priority 1991, dated 1992).

Test system: Rat Peritonitis Fluid PLA2
Experiment: In vitro isolated phospholipase A2 assay, rat peritonitis fluid PLA2
Type: biochemical

Q: How did the “% Inhibition at a concentration of 10 μM, Rat Peritonitis Fluid” value turn out when `O=C(O)Cc1cc(OCc2ccc3ccccc3n2)ccc1Nc1c(Cl)cccc1Cl` [Example 2, 2-[(2,6-Dichlorophenyl)amino]-5-(2-quinolylmethoxy)benzene acetic acid] was run?
A: 69.7%
